IC50 data for three compounds are collected here from patent US7585864B2, “Farnesyl protein transferase inhibitors and their use to treat cancer” (Schering Corporation, priority 2004, dated 2009).

Where only a bound is given, the exact number is not on record here.

In experiment [1] the target is purified human farnesyl protein transferase (Homo sapiens, UniProt P49354+P49356). As to the kind of experiment: FPT IC50 Assay. The experiment is classed as biochemical. The conditions noted are these: transfer of [3H] farnesyl to biotinylated H-ras peptide (biotin-CVLS), 37° C., 60 minutes. On the procedure: FPT activity was determined by measuring the transfer of [^3H] farnesyl from [^3H] farnesyl pyrophosphate to a biotinylated peptide derived from the C-terminus of H-ras (biotin-CVLS). The reaction mixture contains: 50 mM Tris pH7.7, 5 mM MgCl2, 5 μM Zn^++, 5 mM DTT, 0.1% Triton-X, 0.05 μM peptide, 0.03 nM purified human farnesyl protein transferase, 0.180 μM [^3H] farnesyl pyrophosphate, plus the indicated concentration of tricyclic compound or vehicle control in a total volume of 100 μl. The reaction was incubated in a Vortemp shaking incubator at 37° C., 45 RPM for 60 minutes and stopped with 150 μl of 0.25 M EDTA containing 0.5% BSA and 1.3 mg/ml Streptavidin SPA beads. Radioactivity was measured in a Wallach 1450 Microbeta liquid scintillation counter. Percent inhibition was calculated relative to the vehicle control.

Experiment [2] deals with Human tumor cells. As to the kind of experiment: Soft Agar Assay (anchorage-independent growth). The experiment is classed as cell-based. The conditions noted are these: colony outgrowth in 0.3% agarose, 10-16 days, MTT staining. The procedure: Anchorage-independent growth is a characteristic of tumorigenic cell lines. Human tumor cells can be suspended in growth medium containing 0.3% agarose and an indicated concentration of a farnesyl transferase inhibitor. The solution can be overlayed onto growth medium solidified with 0.6% agarose containing the same concentration of farnesyl transferase inhibitor as the top layer. After the top layer is solidified, plates can be incubated for 10-16 days at 37° C. under 5% CO2 to allow colony outgrowth. After incubation, the colonies can be stained by overlaying the agar with a solution of MTT (3-[4,5-dimethyl-thiazol-2-yl]-2,5-diphenyltetrazolium bromide, Thiazolyl blue) (1 mg/mL in PBS). Colonies can be counted and the IC50's can be determined.

In the case of `Cc1cn(CCCN(Cc2ccccc2)C(=O)[C@H]2CN([C@H]3c4ccc(Cl)cc4OCc4cccnc43)CCN2C(=O)OC(C)(C)C)cn1` [Example 1], the IC50 (commonly the concentration that inhibits the measured activity by half) in experiment [1] was found to be 3 nM; in experiment [2] it was 28 nM.
Take `Cc1cn(C[C@@H]2CCCN(C(=O)[C@H]3CN([C@@H]4c5ccc(Cl)cc5OCc5cccnc54)CCN3C(=O)OC3CCCCC3)C2)cn1` [Example 11]: the IC50 in experiment [1] was 0.16 nM.
In the case of `Cc1cn(C[C@@H]2CCCN(C(=O)[C@@H]3CN([C@H]4c5ccc(Cl)cc5OCc5cccnc54)CCN3C(=O)OC(C)(C)C)C2)cn1` [Example 4], the IC50 in experiment [1] was 0.12 nM; in experiment [2], < 5 nM.
